A word on the MIC90: it is an inhibitory concentration at the 90% level, which refers to growth in some studies and to a panel of isolates in others.

Structures are written as SMILES. ≈ marks a conversion by molar mass, not a printed value.

The text below walks through data of US5773019A, “Implantable controlled release device to deliver drugs directly to an internal portion of the body” (The University of Kentucky Research Foundation, priority 1995, dated 1998).

For data set [1], the system named is most pathogens. The note with it: cited from earlier work.
The test system of data set [2] is eye. Put plainly: Ocular safety of ciprofloxacin device (ERG, slit lamp, indirect biomicroscopy).
Data set [3] in a line: In vitro release of ciprofloxacin from device (HPLC). It counts as physicochemical. How it is done: Ciprofloxacin is normally supplied as the HCl salt. […] A 5% solution of PLA was used as a "glue" to fix a 7-0 nylon suture to the pellet.
Release from these devices was determined at 37° C. by immersion in 1 ml of phosphate buffer (pH 7.4) or a solution composed of 20% serum: 80% phosphate buffer. […] Samples were again assayed by HPLC.

Data set [4] concerns eye. Put plainly: ERG toxicity of retinoic acid implant sutured onto sclera. It counts as in vivo. The settings on record: 12 mg disc in silicone on sclera, 3 rabbits, ERG weekly for 5 weeks. How it is done: A device according to the present invention was prepared. This device was composed of a 3 mm, 12 mg disc of retinoic acid encased in silicone. It resembles FIG. 3 in appearance. The implant was prepared by preparing a thin film of silicone. A 2.5 mm hole was then cut through the film and the retinoic acid pellet fixed directly over the hole using silicone. A loop of Prolene suture was placed over the pellet and fixed onto the surface of the film so that a "gap" of over 1 mm was present between the pellet and the suture all the way around. The entire assembly was then coated again in silicone. These pellets were sutured onto the surface of the sclera in 3 rabbits and the ERGs taken every week for 5 weeks.

As for `O=C(O)c1cn(C2CC2)c2cc(N3CCNCC3)c(F)cc2c1=O` [ciprofloxacin], the MIC90 in data set [1] was 1 µg/mL (≈ 3.02 µM). Further, the slit lamp examination result in data set [2] (7 and 14 days) is “mild vitreous cell at 7 days that had resolved by 14 days”. In data set [2] (implanted eyes), the indirect biomicroscopy entry was “devices to be stable with no migration and no retinal detachment”. Besides, the “ERG waveforms or amplitudes” value in data set [2] (pre- vs post-implantation) was “no significant difference in the pre- and post-implantation waveforms or amplitudes”. Further, the “persistence of drug particles in subconjunctival space” value (5 mg subconjunctival suspension injection) amounted to 7 days. Besides, under “explanted devices”, the “linearity of release in the vitreous” value is reported as “linear while in the vitreous” and the “mean release rate in the vitreous” value came out at 2.5 µg/h. The mean device duration (from mean release rate) came out at 4 weeks. Further, the linearity of release result in data set [3] (37° C., 6 days, phosphate buffer pH 7.4 or 20% serum) is listed as “linear over the duration of the study”. The “effect of serum concentration on release” value in data set [3] (phosphate buffer pH 7.4 vs 20% serum) was “relatively independent of serum concentration”. Further, the linearity of release entry in data set [3] (separate study, twenty day period) is reported as “linear over a twenty day period”.
For the compound `CC1=C(/C=C/C(C)=C/C=C/C(C)=C/C(=O)O)C(C)(C)CCC1` [retinoic acid], in data set [4], the “toxicity (ERG)” value is given as “no evidence of toxicity”.
